From article PMC4890880 (ACS infectious diseases, 2016)
pIC50: −log10 of the molar value. Read-outs that look alike come from different tables or passages of the source.

Key:
HepG2-A16-CD81EGFP cells = conditions: for pIC50: read-out: Tox_IC50, HepG2 cytotoxicity
[1] = tested on: Plasmodium berghei (Pb-Luc) exoerythrocytic-stage parasites; conditions: for normalised signal at concentration 10 (first series): concentration 10, first series of dose columns; for normalised signal at concentration 10 (second series): concentration 10, second series of dose columns; for pIC50: read-out: PbLuc_IC50
[2] = sheet "2nd round", Broad compounds, dose response top concentration 10
[3] = sheet 2nd round, maximal inhibition in dose response
[4] = first series, fraction of control
[5] = second series, fraction of control
[6] = 2nd round, maximal inhibition in dose series

SMILES: C[C@@H]1CN([C@@H](C)CO)C(=O)c2cccc(NC(=O)c3ccc(-c4nccs4)cc3)c2O[C@@H]1CN(C)C(=O)Nc1ccc(C(F)(F)F)cc1 [BRD-K43504903-001-01-1]
- pIC50 (HepG2-A16-CD81EGFP cells; sheet "2nd round"): < 5.00
- Tox_max_inhibition (%) (HepG2-A16-CD81EGFP cells; sheet "2nd round"): 21%
- normalised signal at concentration 0.000508053 (first series) [1]: 0.8756
- normalised signal at concentration 0.000508053 (second series) [1]: 0.7942
- normalised signal at concentration 0.00152416 (first series) [1]: 0.8514
- normalised signal at concentration 0.00152416 (second series) [1]: 0.7934
- normalised signal at concentration 0.00457247 (first series) [1]: 0.8815
- normalised signal at concentration 0.00457247 (second series) [1]: 0.6886
- normalised signal at concentration 0.0137174 (first series) [1]: 0.7217
- normalised signal at concentration 0.0137174 (second series) [1]: 0.708
- normalised signal at concentration 0.0411523 (first series) [1]: 0.6989
- normalised signal at concentration 0.0411523 (second series) [1]: 0.7835
- normalised signal at concentration 0.123457 (first series) [1]: 0.7701
- normalised signal at concentration 0.123457 (second series) [1]: 0.8493
- normalised signal at concentration 0.37037 (first series) [1]: 0.9239
- normalised signal at concentration 0.37037 (second series) [1]: 0.7292
- normalised signal at concentration 1.11111 (first series) [1]: 0.7039
- normalised signal at concentration 1.11111 (second series) [1]: 0.8779
- normalised signal at concentration 3.33333 (first series) [1]: 0.8563
- normalised signal at concentration 3.33333 (second series) [1]: 1.012
- normalised signal at concentration 10 (first series) [1]: 0.4042
- normalised signal at concentration 10 (second series) [1]: 0.5157
- pIC50 [1, 2]: < 5.00
- PbLuc_max_inhibition (%) ([1]; sheet "2nd round"): 60%

SMILES: C[C@@H]1CCCCO[C@@H](CN(C)S(=O)(=O)c2ccc(F)cc2)[C@H](C)CN([C@@H](C)CO)C(=O)c2cc(N(C)C)ccc2O1 [BRD-K44445002-001-01-6]
- pIC50 (HepG2-A16-CD81EGFP cells; sheet "2nd round"): < 5.00
- Tox_max_inhibition (%) (HepG2-A16-CD81EGFP cells; sheet "2nd round"): 2%
- normalised signal at concentration 0.000508053 (first series) [1]: 0.8297
- normalised signal at concentration 0.000508053 (second series) [1]: 0.9522
- normalised signal at concentration 0.00152416 (first series) [1]: 0.9815
- normalised signal at concentration 0.00152416 (second series) [1]: 1.174
- normalised signal at concentration 0.00457247 (first series) [1]: 0.6933
- normalised signal at concentration 0.00457247 (second series) [1]: 0.8769
- normalised signal at concentration 0.0137174 (first series) [1]: 0.8541
- normalised signal at concentration 0.0137174 (second series) [1]: 1.037
- normalised signal at concentration 0.0411523 (first series) [1]: 1.012
- normalised signal at concentration 0.0411523 (second series) [1]: 1.038
- normalised signal at concentration 0.123457 (first series) [1]: 1.095
- normalised signal at concentration 0.123457 (second series) [1]: 0.8137
- normalised signal at concentration 0.37037 (first series) [1]: 0.8834
- normalised signal at concentration 0.37037 (second series) [1]: 0.9753
- normalised signal at concentration 1.11111 (first series) [1]: 1.034
- normalised signal at concentration 1.11111 (second series) [1]: 0.8748
- normalised signal at concentration 3.33333 (first series) [1]: 0.858
- normalised signal at concentration 3.33333 (second series) [1]: 0.7361
- normalised signal at concentration 10 (first series) [1]: 0.7308
- normalised signal at concentration 10 (second series) [1]: 0.7674
- pIC50 [1, 2]: < 5.00
- PbLuc_max_inhibition (%) ([1]; sheet "2nd round"): 31%

SMILES: C[C@@H]1CCCCO[C@@H](CN(C)S(=O)(=O)c2ccc(F)cc2)[C@@H](C)CN([C@H](C)CO)C(=O)c2cc(N(C)C)ccc2O1 [BRD-K46014293-001-01-6]
- pIC50 (HepG2-A16-CD81EGFP cells; sheet 2nd round): < 5.00
- Tox_max_inhibition (%) (HepG2-A16-CD81EGFP cells; [3]): 15%
- normalized signal at concentration 10 ([1]; first series of dose-response columns, fraction of control): 1.08
- normalized signal at concentration 0.000508053 [1, 4]: 0.75
- normalized signal at concentration 0.00152416 [1, 4]: 0.85
- normalized signal at concentration 0.00457247 [1, 4]: 0.95
- normalized signal at concentration 0.0137174 [1, 4]: 0.77
- normalized signal at concentration 0.0411523 [1, 4]: 0.97
- normalized signal at concentration 0.123457 [1, 4]: 1.05
- normalized signal at concentration 0.37037 [1, 4]: 1.10
- normalized signal at concentration 1.11111 [1, 4]: 1.01
- normalized signal at concentration 3.33333 [1, 4]: 0.87
- pIC50 ([1]; sheet 2nd round, Broad compounds, dose response): < 5.00
- normalized signal at concentration 10 ([1]; second series of dose-response columns, fraction of control): 0.93
- normalized signal at concentration 0.000508053 [1, 5]: 1.07
- normalized signal at concentration 0.00152416 [1, 5]: 0.98
- normalized signal at concentration 0.00457247 [1, 5]: 0.95
- normalized signal at concentration 0.0137174 [1, 5]: 0.98
- normalized signal at concentration 0.0411523 [1, 5]: 0.94
- normalized signal at concentration 0.123457 [1, 5]: 1.10
- normalized signal at concentration 0.37037 [1, 5]: 1.03
- normalized signal at concentration 1.11111 [1, 5]: 0.83
- normalized signal at concentration 3.33333 [1, 5]: 0.91
- PbLuc_max_inhibition (%) [1, 3]: 25%

SMILES: COc1cccc(NC(=O)N[C@@H]2CC[C@H](CC(=O)N3CCN(C)CC3)O[C@@H]2CO)c1 [BRD-K48690594-001-01-7]
- pIC50 (HepG2-A16-CD81EGFP cells; sheet "2nd round"): < 5.00
- Tox_max_inhibition (%) (HepG2-A16-CD81EGFP cells; sheet "2nd round"): 14%
- normalised signal at concentration 0.000508053 (first series) [1]: 0.9068
- normalised signal at concentration 0.000508053 (second series) [1]: 0.9275
- normalised signal at concentration 0.00152416 (first series) [1]: 1.012
- normalised signal at concentration 0.00152416 (second series) [1]: 1.043
- normalised signal at concentration 0.00457247 (first series) [1]: 1.046
- normalised signal at concentration 0.00457247 (second series) [1]: 0.8968
- normalised signal at concentration 0.0137174 (first series) [1]: 1.108
- normalised signal at concentration 0.0137174 (second series) [1]: 0.8364
- normalised signal at concentration 0.0411523 (first series) [1]: 0.955
- normalised signal at concentration 0.0411523 (second series) [1]: 1.013
- normalised signal at concentration 0.123457 (first series) [1]: 0.854
- normalised signal at concentration 0.123457 (second series) [1]: 0.8546
- normalised signal at concentration 0.37037 (first series) [1]: 1.036
- normalised signal at concentration 0.37037 (second series) [1]: 0.9102
- normalised signal at concentration 1.11111 (first series) [1]: 1.0718
- normalised signal at concentration 1.11111 (second series) [1]: 0.9366
- normalised signal at concentration 3.33333 (first series) [1]: 0.8922
- normalised signal at concentration 3.33333 (second series) [1]: 0.9328
- normalised signal at concentration 10 (first series) [1]: 0.9136
- normalised signal at concentration 10 (second series) [1]: 0.9502
- pIC50 [1, 2]: < 5.00
- PbLuc_max_inhibition (%) ([1]; sheet "2nd round"): 16%

SMILES: N#C[C@@H]1[C@H](c2ccccc2C2=CCCC2)[C@H](CO)N1C(=O)C1CCOCC1 [BRD-K53180201-001-01-6]
- Tox_max_inhibition (%) (HepG2-A16-CD81EGFP cells; [6]): 7%
- pIC50 (HepG2-A16-CD81EGFP cells; 2nd round, unit inferred): < 5.00
- PbLuc_max_inhibition (%) [1, 6]: 21%
- normalized signal at 0.000508053 (first series) ([1]; concentration 0.000508053, first replicate series, fraction of control): 1.0312
- normalized signal at 0.000508053 (second series) ([1]; concentration 0.000508053, second replicate series, fraction of control): 0.7931
- normalized signal at 0.00152416 (first series) ([1]; concentration 0.00152416, first replicate series, fraction of control): 1.021
- normalized signal at 0.00152416 (second series) ([1]; concentration 0.00152416, second replicate series, fraction of control): 0.9501
- normalized signal at 0.00457247 (first series) ([1]; concentration 0.00457247, first replicate series, fraction of control): 0.8781
- normalized signal at 0.00457247 (second series) ([1]; concentration 0.00457247, second replicate series, fraction of control): 0.9105
- normalized signal at 0.0137174 (first series) ([1]; concentration 0.0137174, first replicate series, fraction of control): 0.9372
- normalized signal at 0.0137174 (second series) ([1]; concentration 0.0137174, second replicate series, fraction of control): 0.8749
- normalized signal at 0.0411523 (first series) ([1]; concentration 0.0411523, first replicate series, fraction of control): 0.9703
- normalized signal at 0.0411523 (second series) ([1]; concentration 0.0411523, second replicate series, fraction of control): 1.2503
- normalized signal at 0.123457 (first series) ([1]; concentration 0.123457, first replicate series, fraction of control): 0.9995
- normalized signal at 0.123457 (second series) ([1]; concentration 0.123457, second replicate series, fraction of control): 1.034
- normalized signal at 0.37037 (first series) ([1]; concentration 0.37037, first replicate series, fraction of control): 0.9827
- normalized signal at 0.37037 (second series) ([1]; concentration 0.37037, second replicate series, fraction of control): 0.991
- normalized signal at 1.11111 (first series) ([1]; concentration 1.11111, first replicate series, fraction of control): 1.008
- normalized signal at 1.11111 (second series) ([1]; concentration 1.11111, second replicate series, fraction of control): 0.8686
- normalized signal at 3.33333 (first series) ([1]; concentration 3.33333, first replicate series, fraction of control): 0.9463
- normalized signal at 3.33333 (second series) ([1]; concentration 3.33333, second replicate series, fraction of control): 0.9769
- normalized signal at 10 (first series) ([1]; concentration 10, first replicate series, fraction of control): 1.181
- normalized signal at 10 (second series) ([1]; concentration 10, second replicate series, fraction of control): 1.122
- pIC50 ([1]; 2nd round, Broad DOS compounds, unit not printed (dose series head 10 to 0.000508053)): < 5.00
